The results in this text go back to patent US20090184062A1, “METHOD FOR INHIBITING BIOFILM GROWTH” (PPG INDUSTRIES OHIO, INC., priority 2008, published 2009).

Data set [1] in a line: Total and free chlorine levels in the liquid medium at the end of the contact time (Hach DPD test kit). In kind it is physicochemical. The conditions noted are these: for End FC (free chlorine after one hour) / End TC (total chlorine after one hour): Table I, after 60 min with biofilm, expressed as mg/L Cl2; for End FC (free chlorine at end) / End TC (total chlorine at end): Table II, 30 min contact, as Cl2. Here is the method:
For the control, sterile tap water was added to an Erlenmeyer flask. In other tests (as shown in Table I), various levels of hypochlorous acid (HOCl) or 3-chloro-4,4-dimethyl-2-oxazolidinone (DMO-Cl) were added to an Erlenmeyer flask. The amount of tap water used was approximately equal to the volume of decanted growth medium. The flasks were placed on a temperature controlled rotary shaker (30° C., 150 rpm) for 60 minutes. Total chlorine and free chlorine levels in the liquid medium in the flasks were measured at the beginning and at the end of the 60 minute contact time. At the end of the 60 minute contact time, the biofilm ring was carefully scraped from the flask surface and added to the liquid medium in the flask to ensure that the liquid medium contained the entire biofilm population for enumeration. The liquid in the flask was vigorously agitated to uniformly disperse the organisms. The liquid in the flask was sampled and serially diluted in sterile tap water for agar plating to enumerate the surviving organisms. Agar plating was performed in duplicate and the number of microorganism colonies counted after 48 hours of growth at approximately 30° C.
The procedure of Example 1 was followed except that the concentration of DMO-Cl was varied from 15 μL/L to 60 μL/L, and the contact time was 30 minutes to allow a better opportunity for survival and detection of the S. Natans microorganism. Symbols and footnotes used in Table II that are the same as those found in Table I have the same meaning.

Data set [2] deals with Sphaerotilus natans (ATCC 15291) biofilm. The experiment in a line: Biocidal effect on an existing Sphaerotilus natans biofilm in Erlenmeyer flasks (agar plate count of surviving organisms). In kind it is cell-based. Here is the method:
In the following examples, the sheathed filamentous bacterium Sphaerotilus natans (ATCC 15291) was used. A freeze-dried sample of the bacterium was obtained from the American Type Culture Collection (ATCC, Rockville, Md.). ATCC growth medium (CYGA #1103 broth) was prepared by dissolving (per liter of tap water): 5 grams casitone (pancreatic digest of casein, Difco #225930), which is available from Voight Global Distributions, Inc., Lawrence, Kans.; 10 grams of glycerol; and 1 gram of yeast extract. The growth medium was sterilized at 120° C. for 15 minutes. The sample of Sphaerotilus natans obtained from ATCC was cultured in the CYGA growth medium and transferred to agar plates prepared from CYGA medium plus 1.5 weight percent agar. The agar plates were incubated at 30° C. The bacterium from these agar plates was transferred (subcultured) every few weeks to fresh agar plates to maintain the viability of the microorganism.
3-chloro-4,4-dimethyl-2-oxazolidinone (DMO-Cl) reagent was prepared by manually mixing a selected amount of 4,4-dimethyl-2-oxazolidinone (DMO) and a hypochlorite-containing stock solution in an Erlenmeyer flask, and allowing the mixture to stand for 8-10 hours at room temperature (about 23° C.) prior to use in the experiments. The hypochlorite-containing stock solution was prepared by dissolving calcium hypochlorite in deionized water in an Erlenmeyer flask. The amount of calcium hypochlorite used provided a hypochlorite concentration of approximately 1000 mg/L. The DMO used was Sustains Summer Shield (approximately 17.5 wt. % DMO, density of 1.14 g/mL), which is available from PPG Industries, Inc. The mixture was diluted to the desired concentration with sterile tap water before use in the experiments. Sterile tap water used in the experiments was prepared by autoclaving tap water at 120° C. for 15 minutes. The sterile tap water contained no measurable level of chlorine.
A loop full of Sphaerotilus natans (S. Natans) from an Agar plate containing the S. Natans culture was inoculated in 150 mL of CYGA #1103 growth medium and agitated in a temperature-controlled shaker at 30° C. and 150 rpm for 20 hours to prepare a pre-culture. Five (5) mL of this pre-culture were inoculated into each of a series of 250 mL Erlenmeyer flasks containing 150 mL of CYGA growth medium for batch cultivation of the S. Natans. The bacterium were cultivated at 30° C. for 96 hours on a rotary shaker at 150 rpm. At these conditions, a biofilm layer approximately 2-3 mm high formed on the inside wall of each of the Erlenmeyer flasks near the liquid surface. Approximately 50 to 75 percent of the liquid growth medium in the flasks was carefully decanted, leaving the biofilm layer intact. The decanted liquid growth medium was discarded.
For the control, sterile tap water was added to an Erlenmeyer flask. In other tests (as shown in Table I), various levels of hypochlorous acid (HOCl) or 3-chloro-4,4-dimethyl-2-oxazolidinone (DMO-Cl) were added to an Erlenmeyer flask. The amount of tap water used was approximately equal to the volume of decanted growth medium. The flasks were placed on a temperature controlled rotary shaker (30° C., 150 rpm) for 60 minutes. Total chlorine and free chlorine levels in the liquid medium in the flasks were measured at the beginning and at the end of the 60 minute contact time. At the end of the 60 minute contact time, the biofilm ring was carefully scraped from the flask surface and added to the liquid medium in the flask to ensure that the liquid medium contained the entire biofilm population for enumeration. The liquid in the flask was vigorously agitated to uniformly disperse the organisms. The liquid in the flask was sampled and serially diluted in sterile tap water for agar plating to enumerate the surviving organisms. Agar plating was performed in duplicate and the number of microorganism colonies counted after 48 hours of growth at approximately 30° C. […]

The mark [3] stands for this setting: initial total chlorine 5.4 mg/L.
[4] abbreviates: initial total chlorine about 1 mg/L (HOCl 1.1; DMO-Cl 1.04).
[5] abbreviates: HOCl, initial total chlorine 1.1 mg/L.
The mark [6] stands for this setting: Table I, 60 min contact, initial total chlorine 5.4 mg/L (DMO-Cl prepared with 50 μL/L Sustain Summer Shield), average of duplicates.
Where [7] appears, read: Table I, 60 min contact, initial total chlorine about 1 mg/L (HOCl 1.1; DMO-Cl 1.04, prepared with 50 μL/L Sustain Summer Shield, approx. 10 mg/L DMO), average of duplicates.
[8] abbreviates: DMO-Cl prepared with 15 μL/L Sustain Summer Shield, initial total chlorine 1.2 mg/L.
Setting [9] is: DMO-Cl prepared with 30 μL/L Sustain Summer Shield, initial total chlorine 1.18 mg/L.
The mark [10] stands for this setting: DMO-Cl prepared with 60 μL/L Sustain Summer Shield, initial total chlorine 1.19 mg/L.

Marks after values point to notes of the source that are not given here.

Take `OCl` [HOCl, Hypochlorous Acid, reference compound]: the results for the “End FC (free chlorine after one hour)” value in data set [1] (setting [3]) and in data set [1] (setting [4]) were 1.6 mg/L and 0 mg/L, respectively. Moreover, the entries for the “End TC (total chlorine after one hour)” value in data set [1] (setting [3]) and in data set [1] (setting [4]) were 3.1 mg/L and 0.3 mg/L, respectively. In data set [1] (setting [5]), the “End FC (free chlorine at end)” value came out at 0.1 mg/L. Besides, in data set [1] (setting [5]), the “End TC (total chlorine at end)” value turned out to be 0.31 mg/L. Besides, the “Final Cell Count” value was 0 cfu/mL in data set [2] (setting [6]); 1.9 × 10^4 cfu/mL in data set [2] (setting [7]); 2.3 × 10^4 cfu/mL in data set [2] (Table II, 30 min contact, HOCl, initial total chlorine 1.1 mg/L).
Regarding `CC1(C)COC(=O)N1` [DMO, 4,4-dimethyl-2-oxazolidinone], the “control of biofilm in words” value in data set [2] (between 50 and 60 μL/L of DMO with a source of free available chlorine, contact times between 30 and 60 minutes) is listed as “complete control”.
Take `CC1(C)COC(=O)N1Cl` [DMO-Cl, 3-chloro-4,4-dimethyl-2-oxazolidinone]: the “End FC (free chlorine after one hour)” value in data set [1] (setting [3]) is on record as 0.2 mg/L; in data set [1] (setting [4]), 0.1 mg/L. For the same compound, the “End TC (total chlorine after one hour)” value in data set [1] (setting [3]) is listed as 4.7 mg/L; in data set [1] (setting [4]), 0.4 mg/L. Moreover, the “End FC (free chlorine at end)” value in data set [1] (setting [8]) is listed as 0.05 mg/L; in data set [1] (setting [9]), 0.07 mg/L; in data set [1] (setting [10]), 0 mg/L. Moreover, the “End TC (total chlorine at end)” value is reported as 0.52 mg/L in data set [1] (setting [8]), 0.47 mg/L in data set [1] (setting [9]) and 0.41 mg/L in data set [1] (setting [10]). Further, the “Final Cell Count” value is recorded as 0 cfu/mL in data set [2] (setting [6]); 25^a cfu/mL in data set [2] (setting [7]); 2.1 × 10^4 cfu/mL in data set [2] (Table II, 30 min contact, DMO-Cl prepared with 15 μL/L Sustain Summer Shield (approx. 3 mg/L DMO), initial total chlorine 1.2 mg/L); 1.6 × 10^4 cfu/mL in data set [2] (Table II, 30 min contact, DMO-Cl prepared with 30 μL/L Sustain Summer Shield (approx. 6 mg/L DMO), initial total chlorine 1.18 mg/L); 0 cfu/mL in data set [2] (Table II, 30 min contact, DMO-Cl prepared with 60 μL/L Sustain Summer Shield (approx. 12 mg/L DMO), initial total chlorine 1.19 mg/L). In addition, the “reduction in viable cell numbers” value in data set [2] (existing S. Natans biofilm, 60 minutes contact time (Table I)) is given as not below 3 log.
